Measurements as given in patent publication US7951789B2 (priority 2006, dated 2011).

Legend:
[1] = In vitro cytotoxicity assay in HepG2 cells (MTS); format: cell-based; details: human, collagen plates
Method: A standard in vitro cytotoxicity assay was performed in HepG2 cells. Cells were exposed to drug for 9 days. Cell viability was determined via MTS staining using a CellTiter 96 Aqueous One Solution cell proliferation assay according to the manufacturer's instructions. • a) HepG2 cells were seeded in 96-well tissue culture plates in 100 μl fresh growth media at 7×10^3 cells per well. • b) Drug stock solutions were made up in 100% DMSO as 400× stock solutions and stored at −20° C. until used. • c) Four hours after cells were plated the drug dilutions were prepared and then added to the cells. Cells received up to 100 μM of drug in a total of 200 μl of fresh growth media containing 0.25% DMSO. Control wells received growth media with 0.25% DMSO growth media. Plates were incubated at 37° C., 5% CO2. • d) Cells were treated every-other-day with fresh growth media and fresh drug dilutions for a total of 8 days as described above. • e) On day 9, cell viability of HepG2 cells was determined by adding 20 μl of MTS CellTiter 96 Aqueous One Solution.

[2] = system: wild-type HBV (intracellular nucleocapsids); experiment: Anti-HBV activity in HBV nucleocapsids (RI) via endogenous polymerase assay (EPA); format: cell-based; details: Hepatitis B virus; wild-type HBV producer cell line, intracellular nucleocapsids, EPA; read-out: RI EC50
Method: (§1) Compounds were tested in an anti-HBV assay. Determination of anti-HBV activity in HBV virions and nucleocapsids via endoenous polymerase assays (EPA)
(§2) • 1. 12-well collagen-I coated plates were seeded with producer cells expressing wild-type HBV at a density of 0.5-1×10^6 cells per well in 2 ml growth/selection media. • 2. Drug stock solutions were made up freshly in 100% DMSO as 200× stocks. Five additional 4-fold dilutions were prepared from these 200× stock in 100% DMSO. For each experiment, 4 aliquots of each drug dilution series were stored at −20° C. until used. • 3. Once cells reached confluency (1 day after cells were seeded), drug treatment was initiated by adding 10 μl of drug dilution into 2 ml of fresh growth/selection media. […] The no-drug control wells received only 10 μl of DMSO in fresh media. • 4. Cells were treated every-other-day with 2 ml of fresh drug/medium for a total of 8 days. Cell lysates were then collected on day 10 and subjected to EPA analysis as described below. Preparation of Nucleocapsid-Containing Lysates for Epa Analysis • 1. Cells were grown for 3 to 4 days in 12-well collagen-I coated plates until confluent. • 2. Media was carefully aspirated and the cell monolayers were rinsed once with 1 ml of PBS. • 3. One ml of lysis buffer (50 mM Tris-HCl pH 7.5/150 mM NaCl/5 mM MgCl2/0.2% NP-40) was added to each well. Plates were stored on ice for 30 min to 4 h. • 4. Lysed cells were transferred to 1.5 ml-microfuge tubes. • 5. Lysates were clarified by spinning at 14,000 rpm for 5 min at room temperature. • 6. Clarified lysates were transferred to fresh tubes and immediately frozen on dry-ice, then stored at −80° C. until endogenous polymerase assays were performed as described below. Preparation of Secreted Virions from Supernatant for Epa Analysis • 1. Cells were grown for 3 to 4 days in 12-well collagen-I coated plates until confluent. • 2. Media was carefully aspirated and transferred to 1.5 ml-microfuge tubes. • 3. Supernatants were clarified by spinning at 14,000 rpm for 5 min at room temperature. • 4. Clarified supernatants were transferred to fresh tubes and immediately frozen on dry-ice, then stored at −80° C. until endogenous polymerase assays were performed essentially as described below. Endogenous Polymerase Assay (EPA) of Cell Lysates and Supernatants • 1. EPAs were performed essentially as described by Seifer et al (1998). Intracellular HBV nucleocapsids were immunoprecipitated from the cytoplasmic lysates overnight at 4° C. with a polyclonal rabbit anti-HBcAg antibody and immobilized on protein A sepharose CL-4B beads. Secreted virions were immunoprecipitated from clarified cell supernatants overnight at 4° C. with a monoclonal mouse anti-LS antibody (MA18/7) in the absence of detergent. • 2. Following 3 washes of the immobilized capsids or virions with 1 ml of EPA wash buffer (75 mM NH4Cl, 50 mM Tris-HCl pH 7.4, 1 mM EDTA), endogenous polymerase reactions were initiated by adding 50 μl of detergent-containing EPA cocktail (50 mM Tris-HCl pH7.4, 75 mM NH4Cl, 1 mM EDTA, 20 mM MgCl2, 0.1 mM β-ME, 0.5% NP-40, 100 μM cold dGTP, TTP, dCTP, and 50 nM ^33P-dATP) and incubated overnight at 37° C. The detergent is required to strip the outer envelope from immunoprecipitated virions as well as to enhance permeability of the nucleocapsids. • 3. Following digestion with 1 mg/ml of proteinase K for 1 h at 37° C., endogenously ^33P-labeled HBV DNA was liberated via phenol/chloroform extraction. • 4. The nucleic acids were precipitated with 1 volume of 5M NH4-acetate and 2.5 volumes of 100% EtOH, and then separated on a 1% native agarose gel in Tris-borate-EDTA buffer. • 5. Gels were blotted onto positively charged nylon membrane overnight at room temperature via capillary transfer in 0.4 N NaOH. • 6. Dried membranes were exposed to a Phosphorlmager screen (GE Healthcare) overnight at room temperature, then scanned (Storm 860, GE Healthcare) and quantitated with ImageQuant software (GE Healthcare). • 7. […]

[3] = system: endogenous HBV polymerase activity; experiment: HBV drug susceptibility assay (EPA read-out); format: cell-based; details: for SI: CC50/EC50, HBV Cell Assay (EPA Read-out); for EC50: Hepatitis B virus, HBV Cell Assay (EPA Read-out), collagen plates, read-out: Antiviral Activity (EC50 in μM)
Method: • a) Collagen-I coated cell culture plates were seeded with cells at a density of 0.25-0.5×10^6 cells per well in 2 ml of growth/selection media. • b) Drug stock solutions were made up freshly in 100% DMSO as 200× stocks. Seven 4-fold dilutions of test compound were prepared ranging from 2.5 μM to 0.0006 μM (final). Master drug dilutions were divided into 4 aliquots, and then stored at −20° C. until used. • c) One day after cells were seeded, drug treatments were initiated by adding 10 μl of drug dilution along with 2 ml of fresh growth/selection media. […] The no-drug control wells received 10 μl of DMSO in fresh media. • d) Cells were treated every-other-day with 2 ml of fresh drug combinations/medium for a total of 8 days. Cell lysates were then collected on day 10 as described below and endogenous polymerase assay were performed. Preparation of Nucleocapsid-Containing Lysates for Epa Analysis • a) Two days after the final drug treatment, cells were harvested. • b) Media was carefully aspirated and the cell monolayers were rinsed once with 1 ml of PBS. • c) 1 ml of lysis buffer (50 mM Tris-HCl pH 7.5/150 mM NaCl/5 mM MgCl2/0.2% NP-40) was added to each well. The detergent is required to strip the outer envelope from virions and to allow capture of the inner nucleocapsids. Plates were kept on ice for >30 min. • d) Lysed cells were transferred to 1.5 ml-microfuge tubes. • e) Lysates were clarified by spinning at room temperature for 5 min at 14,000 rpm. • f) Clarified lysates were transferred to fresh tubes and immediately frozen on dry-ice, then stored at −80° C. until endogenous polymerase assays can be performed as described below. Endogenous Polymerase Assay (EPA) of Cell Lysates • a) EPAs were performed essentially as described in Seifer, et al (1998). J. Virol. 72: 2765-2776. […] The detergent is required to enhance permeability of the nucleocapsids. • d) Following digestion with 1 mg/ml of Proteinase K for 1 hour at 37° C., endogenously ^33P-labeled HBV DNA was liberated via phenol/chloroform extraction. • e) The nucleic acids were then precipitated with one volume of 5 M NH4-acetate and 2.5 volumes 100% EtOH, and separated on a 1% native agarose gel in Tris-borate buffer. • f) Gels were blotted onto positively charged nylon membrane overnight at room temperature via capillary transfer in 0.4 N NaOH. • g) Dried membranes were exposed to a phosphoimager screen (GE Healthcare) overnight at room temperature, then scanned (Storm 860, GE Healthcare) and quantitated with ImageQuant software (GE Healthcare). • h) Dose-response curves were generated using XLfit 4.1 software. The mean effective drug concentrations that inhibit endogenous HBV polymerase activity by 50% were calculated from several independent experiments. Cytotoxicity Determination

HCV genotype 1 = experiment: Antiviral activity in chimpanzees chronically infected with HCV genotype 1; format: in vivo; details: 4 days; for Mean viral load reduction: HCV-infected chimpanzees, 10 mg/kg/day oral once daily
Method: (§3) Methods: For pharmacokinetic (PK) and toxicology studies, B102 were orally administered to rats or monkeys at doses from 20 to 300 mg/kg/day up to 14 days. Hepatic nucleoside TP levels were determined by LC-MS/MS. Compounds (10 mg/kg/day) were administered once daily by oral gavage for 4 days in chimpanzees chronically infected with HCV genotype 1. HCV viral loads were monitored before, during and after treatment by quantitative RT-PCR.

HBV wt (HepG2) = experiment: Anti-HBV activity in HBV-infected HepG2 cells; format: cell-based; details: N=3
Method: The compound of Example 1 (NM 204) (Hydroxy-tBuSATE N-benzylphosphoramidate derivative of L-ddA) (A550) was contacted with HBV-infected HepG2 cells. EC50 values were measured according to standard techniques.

[4] = system: wild-type HBV (secreted virions); experiment: Anti-HBV activity in HBV virions via endogenous polymerase assay (EPA); format: cell-based; details: Hepatitis B virus, read-out: Virion EC50 (μM)
Method: as §1, §2

[5] = Pharmacokinetic (PK) studies, oral, monkey; format: in vivo; details: orally administered
Method: as §3

[6] = system: HCV Conl subgenomic replicon (GS4.1 cells); experiment: HCV replicon assay (NS4A ELISA, HCV ELISA 2); format: cell-based; details: Hepatitis C virus; GS4.1 cells, 72 hours, NS4A ELISA; read-out: HCV ELISA 2 EC50
Method: (§4) Huh-7 cells containing HCV Conl subgenomic replicon (GS4.1 cells), (C. Seeger; Fox Chase University, Philadelphia, Pa., USA), are grown in Dulbecco's Modified Eagle Medium (DMEM) supplemented with 10% fetal bovine serum (FBS), 2 mM L-glutamine, 110 mg/L sodium pyruvate, 1×non-essential amino acids, 100 U/mL penicillin-streptomycin and 0.5 mg/mL G418 (Invitrogen). For dose-response testing, the cells are seeded in 96-well plates at 7.5×10^3 cells/well in a volume of 50 μL and incubated at 37° C./5% CO2. Three hours after plating, 50 μL of ten 2-fold serial dilutions of compounds (highest concentration, 75 μM) are added and cell cultures were incubated at 37° C./5% CO2 in the presence of 0.5% DMSO. Alternatively, compounds are tested at a single concentration of 15 μM. In all cases, Huh-7 cells lacking the HCV replicon served as negative control. The cells are incubated in the presence of compounds for 72 hours after which they were monitored for expression of the NS4A protein by enzyme-linked immunosorbent assay (ELISA). For this, the plates were then fixed for 1 min with 1:1 acetone:methanol, washed twice with phosphate-buffered saline (PBS), 0.1% Tween 20, blocked for 1 hour at room temperature with TNE buffer containing 10% FBS and then incubated for 2 h at 37° C. with the anti-NS4A mouse monoclonal antibody A-236 (ViroGen) diluted in the same buffer. After washing three times with PBS, 0.1% Tween 20, the cells are incubated 1 hour at 37° C. with anti-mouse immunoglobulin G-peroxidase conjugate in TNE, 10% FBS. After washing as described above, the reaction is developed with O-phenylenediamine (Zymed). The reaction is stopped after 30 minutes with […] and the absorbance is read at 492 nm using a Sunrise Tecan spectrophotometer. EC50 values are determined from the % inhibition versus concentration data using a sigmoidal non-linear regression analysis based on four parameters with Tecan Magellan software. […] For cytotoxicity evaluation, GS4.1 cells are treated with compounds as described above and cellular viability was monitored using a Cell Titer 96 AQueous One Solution Cell Proliferation Assay (Promega). CC50 values are determined from the % cytotoxicity versus concentration data with Tecan Magellan software as described above.

[7] = Pharmacokinetic (PK) studies, oral, rat; format: in vivo; details: orally administered
Method: as §3

[8] = Cytotoxicity evaluation in GS4.1 cells (Cell Titer 96 AQueous One Solution); format: cell-based; details: human, 72 hours
Method: as §4

## Nc1ncnc2c1ncn2CCOCP(=O)(O)O [PMEA]
[1]
  CC50 at 9 days: > 100 µM
[2]
  EC50: < 1 µM
[3]
  SI: >310
  EC50: 0.328 ± 0.082 µM

## CC(C)[C@H](N)C(=O)O[C@@H]1[C@@H](CO)O[C@@H](n2ccc(N)nc2=O)[C@]1(C)O [valopicitabine, reference compound]
HCV genotype 1
  Mean viral load reduction: 0.7 log 10

## CC(C)(CO)C(=O)SCCOP(=O)(NCc1ccccc1)OC[C@H]1CC[C@@H](n2cnc3c(N)ncnc32)O1 (stereo partly shown) [Ex 1 (A550)]
HBV wt (HepG2); Hepatitis B virus
  EC50: 0.062 ± 0.018 µM

## Nc1ccn([C@@H]2CS[C@H](CO)O2)c(=O)n1 [Lamivudine, lamivudine]
HBV wt (HepG2); Hepatitis B virus
  EC50: 0.022 ± 0.007 µM

## CC(C)(CO)C(=O)SCCOP(=O)(COCCn1cnc2c(N)ncnc21)NCc1ccccc1 (stereo not shown) [Example B261, Hydroxy-tBuSATE N-benzylphosphonamidate Derivative of PMEA]
[1]
  CC50 at 9 days: 19.6 µM
[2]
  EC50: < 1 µM
[3]
  SI: 1,225
  EC50: 0.016 ± 0.004 µM

## CC(C)NP(=O)(OCCSC(=O)C(C)(CO)CO)OC[C@H]1CC[C@@H](n2cnc3c(N)ncnc32)O1 (stereo partly shown) [A361 (NM 55)]
[2]
  EC50: 1 to 10 µM
[4]
  EC50: > 10 µM

## CC(C)(CO)C(=O)SCCOP(=O)(NCc1ccccc1)OC[C@H]1O[C@@H](n2ccc(N)nc2=O)[C@](C)(O)[C@@H]1O (mixture of isomers) [Example B102, Hydroxy-tBuSATE N-benzylphosphoramidate Derivative of 2′-C-methylcytidine]
[5]
  first-pass hepatic extraction: > 95%
  systemic exposure: < 1%
[6]
  EC50: 1 to 10 µM
HCV genotype 1
  Mean viral load reduction: 1.5 log 10
HCV genotype 1; chimpanzees, 10 mg/kg/day oral
  lab abnormalities or evidence of toxicities: No lab abnormalities or evidence of toxicities were observed
[7]
  first-pass hepatic extraction: > 95%
  systemic exposure: < 1%
[8]
  CC50: > 75 µM

## Nc1ncnc2c1ncn2[C@@H]1CC[C@H](CO)O1 [LddA, L-ddA]
HBV wt (HepG2)
  EC50: > 10 µM
